ChEMBL document CHEMBL3885861, “Open TG-GATES”

Organism: Rattus norvegicus
Test: Open TG-GATES - Regimen: Single
Format: toxicity, organism-based, Sprague-Dawley
Set-up: regimen Single, gender Male, age 6 weeks
Details: in vivo, po, 10 mg/kg, route gavage, dose level Low; for Bas / Eos / Hb / Ht / Lym / MCH / MCHC / MCV / Mono / Neu / Plat / RBC / Ret / WBC: tissue Blood; for KIDNEY_L / KIDNEY_R / KIDNEY_TOTAL: tissue Kidney; for LIVER: tissue Liver; for A/G / ALP / ALT / AST / BUN / CRE / Ca / Cl / DBIL / GLC / IP / K / LDH / Na / PL / RALB / TBIL / TC / TG / TP / gamma-GTP: tissue Plasma

Cc1ccc2cc3c(ccc4ccccc43)c3c2c1CC3 [3-METHYLCHOLANTHRENE] gave a TERMINAL_BW (3 h) of 210.8 g, a Bas (3 h) of 0% and an Eos (3 h) of 0.8%. It also gave a Hb (3 h) of 12.6 g/dL, a Ht (3 h) of 39.3% and a Lym (3 h) of 77.6%. It also gave an MCH (3 h) of 20.5 pg, an MCHC (3 h) of 32.2% and an MCV (3 h) of 63.7 fL. The Mono (3 h) was 3.4%, the Neu (3 h) was 17.8% and the Plat (3 h) was 130.6 x10_4/uL. The RBC (3 h) was 616.6 x10_4/ul, the Ret (3 h) was 9.1% and the WBC (3 h) was 94.8 x10_2/uL. The KIDNEY_L (3 h) was 0.9 g, the KIDNEY_R (3 h) was 0.9 g and the KIDNEY_TOTAL (3 h) was 1.8 g. For the same molecule, the LIVER (3 h) was 9.5 g, the A/G (3 h) was 1 and the ALP (3 h) was 1720 IU/L. It also gave an ALT (3 h) of 46.6 IU/L, an AST (3 h) of 81 IU/L and a BUN (3 h) of 13.1 mg/dL. For the same molecule, the CRE (3 h) was 0.1 mg/dL, the Ca (3 h) was 10.9 mg/dL and the Cl (3 h) was 103 meq/L. For the same molecule, the DBIL (3 h) was 0.002 mg/dL, the GLC (3 h) was 175.4 mg/dL and the IP (3 h) was 8.4 mg/dL. The K (3 h) was 4.2 meq/L, the LDH (3 h) was 201.8 IU/L and the Na (3 h) was 139.7 meq/L. For the same molecule, the PL (3 h) was 172 mg/dL, the RALB (3 h) was 2.9 g/dL and the TBIL (3 h) was 0.004 mg/dL. The TC (3 h) was 80 mg/dL, the TG (3 h) was 185.2 mg/dL and the TP (3 h) was 5.6 g/dL. It also gave a gamma-GTP (3 h) of 0.7 IU/L, a TERMINAL_BW (6 h) of 205.3 g and a Bas (6 h) of 0%. For the same molecule, the Eos (6 h) was 0.4%, the Hb (6 h) was 12.9 g/dL and the Ht (6 h) was 38.8%. It also gave a Lym (6 h) of 73.8%, an MCH (6 h) of 20.7 pg and an MCHC (6 h) of 33.3%. It also gave an MCV (6 h) of 62.1 fL, a Mono (6 h) of 3.6% and a Neu (6 h) of 21.2%. For the same molecule, the Plat (6 h) was 131.8 x10_4/uL, the RBC (6 h) was 625.8 x10_4/ul and the Ret (6 h) was 7.9%. For the same molecule, the WBC (6 h) was 136.1 x10_2/uL, the KIDNEY_L (6 h) was 0.9 g and the KIDNEY_R (6 h) was 0.9 g. It also gave a KIDNEY_TOTAL (6 h) of 1.8 g, an LIVER (6 h) of 8.3 g and an A/G (6 h) of 1. It also gave an ALP (6 h) of 1483.2 IU/L, an ALT (6 h) of 37.6 IU/L and an AST (6 h) of 74.6 IU/L. For the same molecule, the BUN (6 h) was 8.2 mg/dL, the CRE (6 h) was 0.1 mg/dL and the Ca (6 h) was 10.6 mg/dL. It also gave a Cl (6 h) of 105.3 meq/L, a DBIL (6 h) of 0.002 mg/dL and a GLC (6 h) of 165.8 mg/dL. The IP (6 h) was 9.2 mg/dL, the K (6 h) was 4.2 meq/L and the LDH (6 h) was 162 IU/L. The Na (6 h) was 140.5 meq/L, the PL (6 h) was 160.6 mg/dL and the RALB (6 h) was 2.8 g/dL. For the same molecule, the TBIL (6 h) was 0.004 mg/dL, the TC (6 h) was 87.6 mg/dL and the TG (6 h) was 79.2 mg/dL. The TP (6 h) was 5.6 g/dL, the gamma-GTP (6 h) was 0.7 IU/L and the TERMINAL_BW (9 h) was 205.9 g. For the same molecule, the Bas (9 h) was 0%, the Eos (9 h) was 0.8% and the Hb (9 h) was 12.2 g/dL. For the same molecule, the Ht (9 h) was 37.7%, the Lym (9 h) was 74.2% and the MCH (9 h) was 20.2 pg. The MCHC (9 h) was 32.5%, the MCV (9 h) was 62 fL and the Mono (9 h) was 2.8%. For the same molecule, the Neu (9 h) was 21.6%, the Plat (9 h) was 122.2 x10_4/uL and the RBC (9 h) was 608.4 x10_4/ul. For the same molecule, the Ret (9 h) was 8.9%, the WBC (9 h) was 114.6 x10_2/uL and the KIDNEY_L (9 h) was 0.9 g. The KIDNEY_R (9 h) was 0.9 g, the KIDNEY_TOTAL (9 h) was 1.7 g and the LIVER (9 h) was 8.3 g. It also gave an A/G (9 h) of 1, an ALP (9 h) of 1540.8 IU/L and an ALT (9 h) of 33.6 IU/L. It also gave an AST (9 h) of 72 IU/L, a BUN (9 h) of 11.6 mg/dL and a CRE (9 h) of 0.1 mg/dL. The Ca (9 h) was 10.5 mg/dL, the Cl (9 h) was 104.7 meq/L and the DBIL (9 h) was 0 mg/dL. For the same molecule, the GLC (9 h) was 174.4 mg/dL, the IP (9 h) was 10.2 mg/dL and the K (9 h) was 4.4 meq/L. For the same molecule, the LDH (9 h) was 186.6 IU/L, the Na (9 h) was 142.1 meq/L and the PL (9 h) was 155.2 mg/dL. For the same molecule, the RALB (9 h) was 2.8 g/dL, the TBIL (9 h) was 0.002 mg/dL and the TC (9 h) was 81.4 mg/dL. It also gave a TG (9 h) of 90.6 mg/dL, a TP (9 h) of 5.5 g/dL and a gamma-GTP (9 h) of 0.8 IU/L. It also gave a TERMINAL_BW (24 h) of 216.8 g, a Bas (24 h) of 0% and an Eos (24 h) of 0.2%. For the same molecule, the Hb (24 h) was 12.7 g/dL, the Ht (24 h) was 38.9% and the Lym (24 h) was 79%. For the same molecule, the MCH (24 h) was 20.2 pg, the MCHC (24 h) was 32.6% and the MCV (24 h) was 62 fL. The Mono (24 h) was 3.4%, the Neu (24 h) was 16.2% and the Plat (24 h) was 120.4 x10_4/uL. It also gave an RBC (24 h) of 627.6 x10_4/ul, a Ret (24 h) of 7.9% and a WBC (24 h) of 105.1 x10_2/uL. The KIDNEY_L (24 h) was 0.9 g, the KIDNEY_R (24 h) was 1 g and the KIDNEY_TOTAL (24 h) was 1.9 g. The LIVER (24 h) was 10.7 g, the A/G (24 h) was 1 and the ALP (24 h) was 1758 IU/L. For the same molecule, the ALT (24 h) was 40.6 IU/L, the AST (24 h) was 73.8 IU/L and the BUN (24 h) was 15.7 mg/dL. It also gave a CRE (24 h) of 0.1 mg/dL, a Ca (24 h) of 10.9 mg/dL and a Cl (24 h) of 103.5 meq/L. The DBIL (24 h) was 0.002 mg/dL, the GLC (24 h) was 179.6 mg/dL and the IP (24 h) was 6.9 mg/dL. It also gave a K (24 h) of 4.4 meq/L, an LDH (24 h) of 173.4 IU/L and a Na (24 h) of 141.7 meq/L. For the same molecule, the PL (24 h) was 165.6 mg/dL, the RALB (24 h) was 2.8 g/dL and the TBIL (24 h) was 0.002 mg/dL. It also gave a TC (24 h) of 81.6 mg/dL, a TG (24 h) of 150.3 mg/dL and a TP (24 h) of 5.5 g/dL. It also gave a gamma-GTP (24 h) of 0.8 IU/L.
